Laboratory results published in PubChem BioAssay AID1645862 (Buhrlage Lab, Dana-Farber Cancer Institute and Novartis …, 2021).
The source made the active and inactive calls. How the calls were made is not given here.

molecular target: Ubiquitin carboxyl-terminal hydrolase 8 (Homo sapiens) (UniProt P40818); experiment: Ubiquitin-specific protease 8 inhibitors, concentration-effect, biochemical, validation of initial actives (AID 1645862); conditions: recombinant USP8 deubiquitinase activity assay;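 further: potency reflects inhibition of USP8 cleavage of a ubiquitin rhodamine substrate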
Sequence (P40818 whole entry, looked up): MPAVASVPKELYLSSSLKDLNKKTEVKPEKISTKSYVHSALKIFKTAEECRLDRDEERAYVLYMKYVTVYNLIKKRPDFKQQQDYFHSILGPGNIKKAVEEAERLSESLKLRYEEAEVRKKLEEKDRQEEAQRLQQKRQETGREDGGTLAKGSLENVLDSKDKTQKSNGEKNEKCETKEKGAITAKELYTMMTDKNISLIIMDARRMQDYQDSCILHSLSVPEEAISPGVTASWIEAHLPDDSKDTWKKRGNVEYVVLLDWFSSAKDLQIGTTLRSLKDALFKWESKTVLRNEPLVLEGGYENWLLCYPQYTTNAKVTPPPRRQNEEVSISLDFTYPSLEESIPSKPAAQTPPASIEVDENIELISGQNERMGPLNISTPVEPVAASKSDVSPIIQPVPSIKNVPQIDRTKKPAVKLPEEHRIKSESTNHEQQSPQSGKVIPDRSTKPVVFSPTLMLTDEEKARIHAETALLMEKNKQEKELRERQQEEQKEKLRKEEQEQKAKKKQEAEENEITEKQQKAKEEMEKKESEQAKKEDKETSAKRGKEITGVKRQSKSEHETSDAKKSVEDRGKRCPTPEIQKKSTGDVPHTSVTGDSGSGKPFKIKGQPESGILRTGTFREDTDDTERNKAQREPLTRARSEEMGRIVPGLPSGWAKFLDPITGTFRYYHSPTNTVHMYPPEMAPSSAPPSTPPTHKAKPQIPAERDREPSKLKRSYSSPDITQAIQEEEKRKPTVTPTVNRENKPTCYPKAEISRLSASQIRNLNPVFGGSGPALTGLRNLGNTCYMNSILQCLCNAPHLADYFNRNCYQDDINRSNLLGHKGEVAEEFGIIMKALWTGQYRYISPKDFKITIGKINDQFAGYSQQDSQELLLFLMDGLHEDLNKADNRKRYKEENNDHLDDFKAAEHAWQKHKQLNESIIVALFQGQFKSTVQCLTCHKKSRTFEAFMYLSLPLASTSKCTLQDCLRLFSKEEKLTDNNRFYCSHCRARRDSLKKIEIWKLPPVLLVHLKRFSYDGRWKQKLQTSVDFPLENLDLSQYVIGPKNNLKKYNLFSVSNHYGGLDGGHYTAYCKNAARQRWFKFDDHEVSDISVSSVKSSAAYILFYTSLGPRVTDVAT

| SMILES | IC50 |
| --- | --- |
| Cc1cc(N2CCN(c3ncccn3)CC2)nc2ccc(NC(=O)c3ccncc3)cc12 | > 40 µM (inactive) |
| N#Cc1cc(C(=O)c2cc(Cl)ccc2O)cn(-c2ccccn2)c1=O | > 40 µM (inactive) |
| O=C(c1ccco1)N1CCC2(CC1)CC1(CO2)Nc2ccccc2-n2cccc21 (stereo unspecified) | 22.6 µM |
| COc1cccc(-c2cc(C(=O)Nc3cc(C)n(Cc4ccc(Cl)cc4)n3)no2)c1 | > 40 µM (inactive) |
| Cc1cccc(Cl)c1NC(=O)Nc1ccc(NC(=O)c2ccccc2O)cc1 | > 40 µM (inactive) |
| O=C(c1cccnc1)N1CCCC(Cc2cc(-c3ncc[nH]3)ncn2)C1 (stereo unspecified) | > 40 µM (inactive) |
| O=C1Cc2ccccc2C(=O)N1Cc1cccc(Cl)c1 | 4.12 µM |
| Cn1c(=O)c(-c2ccc(C(=O)NCc3cccc(Cl)c3)cc2)nc2cccnc21 | > 40 µM (inactive) |
| CCOC(=O)c1ccc(NC(=O)Cn2c(=O)n(-c3ccc(CC(=O)NCc4ccco4)cc3)c(=O)c3ccccc32)cc1 | > 40 µM (inactive) |
| Cc1cccc(-n2ccnc(SCC(=O)Nc3ccc(Cl)cc3F)c2=O)c1 | > 40 µM (inactive) |
| CCOC(=O)N1CCN(C(=O)c2ccc(CS(=O)c3ccccc3Cl)o2)CC1 (stereo unspecified) | > 40 µM (inactive) |
| CCOc1ccc(C2SCC(=O)Nc3c2c(=O)[nH]n3C2CCCCC2)cc1 (stereo unspecified) | > 40 µM (inactive) |
| CCc1[nH]c(=O)cc2cc(OC)c(OC)cc12 | 0.722 µM |
| O=C(Cn1c(COc2ccccc2)nc2ccccc21)Nc1cc(Cl)ccc1Cl | > 40 µM (inactive) |
| Cc1ccc2cc(-c3noc(CCC(=O)NC4CCCC4)n3)c(=O)[nH]c2c1 | > 40 µM (inactive) |
| CSc1ccc(CNC(=O)Cn2nc(C)c3c(C)n(-c4ccccc4)nc3c2=O)cc1 | 19.5 µM |
| Cc1ccc(CS(=O)(=O)c2cn(CC(=O)NCCc3ccccc3)c3ccccc23)cc1 | > 40 µM (inactive) |
| CN(C)c1ccc(CNC(=O)c2nnc(C(=O)Nc3ccccc3)s2)cc1 | > 40 µM (inactive) |

| SMILES | IC50 |
| --- | --- |
| O=C(CCn1c(=O)c2ccccc2n(Cc2ccc(F)cc2Cl)c1=O)NCc1ccco1 | > 40 µM (inactive) |
| O=C(COc1ccc(C2CCCCC2)cc1)Nc1ccc(-c2nn3cnnc3s2)cc1 | > 40 µM (inactive) |
| CCOc1ccc2c(c1)c(=O)c(C(=O)c1ccc(F)cc1)cn2CC(=O)Nc1ccccc1 | > 40 µM (inactive) |
| COc1ccc(CC(=O)Nc2c(NCc3ccccc3)c3ccccc3oc2=O)cc1 | 38.2 µM |
| CSc1cccc(NC(=O)c2cc(-c3cccnc3)n[nH]2)c1 | > 40 µM (inactive) |
| CCC(=O)Nc1nc2cc(NC(=O)Nc3ccccc3Cl)ccc2s1 | > 40 µM (inactive) |
| CCn1c(SCC(=O)c2c(N)n(CC(C)C)c(=O)n(C)c2=O)nnc1-c1ccccc1 | > 40 µM (inactive) |
| CCn1cc2c(n1)c(=O)n(Cc1ccccc1)c(=O)n2CC(=O)Nc1ccc(C(C)C)cc1 | > 40 µM (inactive) |
| O=C(Cc1nnc(NC(=O)Nc2ccc3c(c2)OCO3)s1)NCc1ccccc1 | > 40 µM (inactive) |
| N=C1/C(=C/c2cn(Cc3ccccc3F)c3ccccc23)C(=O)N=C2SC(C(F)(F)F)=NN12 | > 40 µM (inactive) |
| O=C(Cn1c(=O)n(CC2CCC(C(=O)NCCc3ccccc3)CC2)c(=O)c2ccccc21)NCc1ccco1 (stereo unspecified) | > 40 µM (inactive) |
| CNC(=O)Cc1ccc(NC(=O)/C=C/c2cn(-c3ccccc3)nc2-c2ccc(F)cc2)cc1 | > 40 µM (inactive) |
| Cc1cc(NC(=O)CN2CCCN(S(=O)(=O)c3ccc(F)cc3)CC2)ccc1Br | > 40 µM (inactive) |
| Cc1cn2nnc(C(=O)Nc3ccc(OC(F)(F)F)cc3)c2c(=O)[nH]1 | > 40 µM (inactive) |
| COc1ccc(/C=C/C(=O)Nc2nc3n(n2)C(c2ccccc2)CC(=O)N3)cc1 (stereo unspecified) | > 40 µM (inactive) |
| Cc1ccc2c(c1)c(=O)c(C(=O)c1ccccc1)cn2CC(=O)Nc1ccc2c(c1)OCO2 | > 40 µM (inactive) |
| COc1ccc(-c2cc3nc([C@H](C)NC(=O)CC4CCCC4)nn3cn2)cc1 | > 40 µM (inactive) |
| Cc1ccccc1-c1noc(-c2ccccc2OCC(=O)NC(C)C)n1 | > 40 µM (inactive) |
